# Like-named read-outs stand apart in the source and are kept apart here.
# Legend:
# [1] = 15-min incubation with rat liver microsomes; cited from earlier work
# [2] = molecular target: T1, Human recombinant MMP-2 (Homo sapiens, UniProt P08253); test: Inhibition of MMP-2, fluorogenic substrate hydrolysis; type: biochemical
# T1 sequence (P08253 110-660): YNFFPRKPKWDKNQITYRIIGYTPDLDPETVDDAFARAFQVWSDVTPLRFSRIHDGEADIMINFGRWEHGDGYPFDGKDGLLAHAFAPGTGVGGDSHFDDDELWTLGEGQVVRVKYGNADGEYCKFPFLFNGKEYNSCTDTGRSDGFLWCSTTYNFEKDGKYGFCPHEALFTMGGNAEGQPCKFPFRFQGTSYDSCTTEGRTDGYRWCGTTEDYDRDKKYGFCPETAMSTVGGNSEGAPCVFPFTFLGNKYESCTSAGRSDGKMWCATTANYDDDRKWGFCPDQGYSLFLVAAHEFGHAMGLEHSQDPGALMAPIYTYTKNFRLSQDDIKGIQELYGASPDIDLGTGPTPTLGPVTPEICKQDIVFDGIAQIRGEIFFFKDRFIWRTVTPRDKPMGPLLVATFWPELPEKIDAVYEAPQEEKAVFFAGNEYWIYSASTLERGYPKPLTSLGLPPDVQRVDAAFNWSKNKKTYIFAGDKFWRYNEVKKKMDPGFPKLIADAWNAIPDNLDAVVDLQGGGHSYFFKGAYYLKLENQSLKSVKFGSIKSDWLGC
# [3] = molecular target: T2, catalytic domain of human recombinant MMP-1 (Homo sapiens, UniProt P03956); test: Inhibition of MMP-1 catalytic domain, fluorogenic substrate hydrolysis; type: biochemical
# T2 sequence (P03956 100-269 limits assumed): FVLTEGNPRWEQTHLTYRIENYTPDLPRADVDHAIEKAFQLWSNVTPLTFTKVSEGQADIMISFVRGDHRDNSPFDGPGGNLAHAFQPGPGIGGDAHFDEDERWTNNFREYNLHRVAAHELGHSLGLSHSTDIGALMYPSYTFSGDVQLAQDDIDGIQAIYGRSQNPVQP
# [4] = molecular target: T3, Human recombinant active MMP-7 (Homo sapiens, UniProt P09237); test: Inhibition of MMP-7, fluorogenic substrate hydrolysis; type: biochemical
# T3 sequence (P09237 95-267): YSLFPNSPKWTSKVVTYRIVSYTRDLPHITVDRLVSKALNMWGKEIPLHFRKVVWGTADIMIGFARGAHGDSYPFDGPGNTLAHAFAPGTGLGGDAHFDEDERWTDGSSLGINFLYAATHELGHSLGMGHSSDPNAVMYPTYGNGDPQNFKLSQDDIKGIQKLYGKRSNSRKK
# [5] = molecular target: catalytic domain of human recombinant MMP-14 (MT1-MMP) (Homo sapiens, UniProt P50281); test: Inhibition of MMP-14 catalytic domain, fluorogenic substrate hydrolysis; type: biochemical
# [6] = In vitro metabolism, incubation with rat liver microsomes; type: in vitro ADME; conditions: more metabolically stable than SB-3CT
# [7] = molecular target: Human recombinant MMP-9 (Homo sapiens, UniProt P14780); test: Inhibition of MMP-9, fluorogenic substrate hydrolysis; type: biochemical
# [8] = molecular target: catalytic domain of human recombinant MMP-3 (Homo sapiens, UniProt P08254); test: Inhibition of MMP-3 catalytic domain, fluorogenic substrate hydrolysis; type: biochemical
# catalytic domain of human recombinant MMP-3, sequence (P08254 100-272 limits assumed): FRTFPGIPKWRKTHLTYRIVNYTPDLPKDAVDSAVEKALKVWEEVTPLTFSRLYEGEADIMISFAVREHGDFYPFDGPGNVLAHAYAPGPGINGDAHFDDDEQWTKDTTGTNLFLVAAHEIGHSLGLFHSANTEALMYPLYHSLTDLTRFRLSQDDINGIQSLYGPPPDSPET
# Human recombinant MMP-9, sequence (P14780 94-707): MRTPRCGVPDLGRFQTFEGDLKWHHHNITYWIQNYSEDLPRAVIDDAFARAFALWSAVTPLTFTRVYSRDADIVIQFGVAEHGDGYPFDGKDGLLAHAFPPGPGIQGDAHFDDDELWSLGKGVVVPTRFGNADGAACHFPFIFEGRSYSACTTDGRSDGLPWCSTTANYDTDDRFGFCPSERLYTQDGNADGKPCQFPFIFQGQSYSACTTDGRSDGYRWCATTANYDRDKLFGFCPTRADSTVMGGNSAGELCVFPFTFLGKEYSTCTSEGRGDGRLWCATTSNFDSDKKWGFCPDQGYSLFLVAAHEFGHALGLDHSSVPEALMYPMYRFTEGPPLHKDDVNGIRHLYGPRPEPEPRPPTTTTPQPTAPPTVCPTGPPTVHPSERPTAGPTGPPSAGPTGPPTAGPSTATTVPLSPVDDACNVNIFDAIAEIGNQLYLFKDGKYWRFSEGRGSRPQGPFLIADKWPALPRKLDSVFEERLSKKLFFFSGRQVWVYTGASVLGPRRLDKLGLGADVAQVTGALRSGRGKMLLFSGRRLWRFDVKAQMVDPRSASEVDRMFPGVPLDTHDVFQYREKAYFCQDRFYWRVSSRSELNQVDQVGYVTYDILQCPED
smiles,measurement,setting,value
"O=S(=O)(CC1CS1)c1ccc(Oc2ccccc2)cc1 (centres unmarked) [Compound 1, 2-(4-phenoxyphenylsulfonylmethyl)thiirane]",compound remaining,[1],0.5%
"C[C@@H]([C@@H]1CS1)S(=O)(=O)c1ccc(Oc2ccccc2)cc1 [Compound 5a, (2S)-2-(1S-(4-Phenoxyphenylsulfonyl)ethyl)thiirane]",Ki,"[2]; MMP-2, linear competitive inhibitors",7200 ± 100 nM
"C[C@@H]([C@H]1CS1)S(=O)(=O)c1ccc(Oc2ccccc2)cc1 [Compound 5b, (2R)-2-(1S-(4-Phenoxyphenylsulfonyl)ethyl)thiirane]",Ki,"[3]; read-out: Inhibition (Ki column), MMP-1cat, up to 60 μM",> 60000 nM
same,Ki,"[4]; read-out: Inhibition (Ki column), MMP-7, up to 60 μM",> 60000 nM
same,Ki,[2]; MMP-2,180 ± 30 nM
same,10^–3 kon,"[2]; MMP-2, slow-binding onset rate constant, values printed as 10^–3 kon",3.3 ± 0.1 M/second
same,10^4 koff,"[2]; MMP-2, values printed as 10^4 koff",5.9 ± 1.0 second
same,Ki,[5]; MMP-14cat,740 ± 170 nM
same,10^4 koff,"[5]; MMP-14cat, values printed as 10^4 koff",8.9 ± 2.1 second
same,10^–3 kon,"[5]; MMP-14cat, values printed as 10^–3 kon",1.2 ± 0.1 M/second
same,Metabolic stability relative to SB-3CT,[6],> 50 fold
same,Ki,[7]; MMP-9,3500 ± 200 nM
same,10^4 koff,"[7]; MMP-9, values printed as 10^4 koff",9.0 ± 0.6 second
same,10^–3 kon,"[7]; MMP-9, values printed as 10^–3 kon",0.26 ± 0.01 M/second
same,inhibition at 60 µM,"[8]; MMP-3cat, 60 μM inhibitor",8% Inhibition at 60 μM
"C[C@H]([C@H]1CS1)S(=O)(=O)c1ccc(Oc2ccccc2)cc1 [Compound 5c, (2R)-2-(1R-(4-Phenoxyphenylsulfonyl)ethyl)thiirane]",Ki,[2],4100 ± 100 nM
"C[C@H]([C@@H]1CS1)S(=O)(=O)c1ccc(Oc2ccccc2)cc1 [Compound 5d, (2S)-2-(1R-(4-Phenoxyphenylsulfonyl)ethyl)thiirane]",Ki,[3],> 60000 nM
same,Ki,[4],> 60000 nM
same,Ki,[2],390 ± 30 nM
same,koff,[2]; read-out: 10^4 koff,0.00081 ± 6e-05 s⁻¹
same,kon,[2]; read-out: 10^–3 kon,2100 ± 100 M⁻¹ s⁻¹
same,Ki,[5],2100 ± 200 nM
same,koff,[5]; read-out: 10^4 koff,0.00095 ± 9e-05 s⁻¹
same,kon,[5]; read-out: 10^–3 kon,460 ± 10 M⁻¹ s⁻¹
same,Metabolic stability relative to SB-3CT,[6],> 50 fold
same,Ki,[7],3300 ± 200 nM
same,koff,[7]; read-out: 10^4 koff,0.00072 ± 4e-05 s⁻¹
same,kon,[7]; read-out: 10^–3 kon,220 ± 10 M⁻¹ s⁻¹
same,inhibition at 60 µM,[8]; read-out: Inhibition at 60 μM,9%
"C[C@@H]([C@H]1C[S+]1[O-])S(=O)(=O)c1ccc(Oc2ccccc2)cc1 (stereo partly drawn) [Compound 12, (2R)-2-(1S-(4-Phenoxyphenylsulfonyl)ethyl)thiirane S-oxide]",Ki,[2]; MMP-2,20000 nM
same,inhibition at a fixed 60 μM inhibitor concentration,"[5]; MMP-14, 60 μM",0%
same,inhibition at a fixed 60 μM inhibitor concentration,"[7]; MMP-9, 60 μM",30%
CC(C1CS1)S(=O)(=O)c1ccc(Oc2ccc(O)cc2)cc1 (centres unmarked) [Compound 13b],inhibition in words,"[3]; MMP-1, inhibitor concentrations up to 60 μM",Marginal to no inhibition
same,inhibition in words,"[4]; MMP-7, inhibitor concentrations up to 60 μM",Marginal to no inhibition
same,Ki,[2]; MMP-2,220 ± 90 nM
same,Ki,[5]; MMP-14cat,2100 ± 700 nM
same,Ki,[7]; MMP-9,1900 ± 700 nM
same,inhibition in words,"[8]; MMP-3, inhibitor concentrations up to 60 μM",Marginal to no inhibition
